# In patent US5747456A, “Continuous low-dose administration of parathyroid hormone or its agonist” (Beth Israel Deaconess Medical Center, priority 1996, dated 1998):
# Tests used:
# osteoblast activity = details: intravenous infusion 0.55 U/kg/hr continuously for 24 hours, cited from earlier work
# bone growth = test: Continuous infusion of hPTH1-34 in post-menopausal women with osteoporosis (Example 5); type: in vivo, human; details: continuous infusion 25 to 400 units/24 hrs by infusion pump, twelve months
# Procedure: The anabolic efficacy of the PTH/PTHrP agonists are tested in humans (Review in Dempster D. W., et al., Endocrine Rev., 1993, 14, 690-709). To determine if continuous administration of hPTH1-34 or its agonist is effective in promoting bone growth in humans, 30 post-menopausal women with established osteoporosis based on bone-density measurements are selected. A double-blind, placebo-controlled, randomized experiment is conducted where two groups of 15 women each are either placed on placebo treatment or continuous infusion of a defined dose of hPTH1-34 (25 units to 400 units/24 hrs) using an infusion pump.
# The patients prior to the study are subject to the following: complete health and physical examination, evaluation of the nutritional status (particularly of calcium intake and serum calcium), full analysis of biomarkers for bone-turnover (Riis, B. J., Amer. J. Med. 1993, 95 [Suppl 5A], 17s-21s; Delmas, P. D., Amer. J. Med., […], 91 [Suppl 5B], 59s-63s), radiology, bone mass measurements of vertebral and axial sites (Gerant, H. K., et al., Amer. J. Med., 1991, 91 [Suppl 5B], 49s-53s; Wasnich, R. D., Amer J Med, 1991, 91 [Suppl 5B], 54s-58s) and bone biopsy, to establish the baseline parameters for each individual. […]
substance,measurement,setting,value
hPTH1-34: synthetic amino-terminal fragment of PTH1-84 (human parathyroid hormone),blood levels of ionized calcium,osteoblast activity; humans,increase
same,serum levels of collagen type I,"osteoblast activity; within 16 hours of infusion, six osteoporotic and two normal subjects",decreased
same,bone mass measurements and bone biopsy,bone growth,clear indication of bone growth
